According to US20150302140A1, “IN SILICO IDENTIFICATION OF CANCER MOLECULAR SIGNALING PATHWAYS AND DRUG CANDIDATES” (H. LEE MOFFITT CANCER CENTER AND RESEARCH INSTITUTE, INC., priority 2012, published 2015):
“Also recorded” adds a separate entry of the source. Where two headings read alike, the source gives them in different places.

Experiments:
Type in all cases: cell-based
HEYA8 = test: MTS cell proliferation/viability assay, 72 hours drug exposure; settings: HEY A8, log10 of IC50, uM
Excerpt: (§1) Ovarian cancer cell lines were either obtained from the European Collection of Cell Cultures, Salisbury, England (A2780S), or were kind gifts from Dr. Patricia Kruk, Department of Pathology, College of Medicine, University of South Florida, Tampa, Fla., and Susan Murphy, PhD, Dept of OB/GYN, Division of GYN Oncology, Duke University, Durham, N.C. (HeyA8, OVCAR2, OVCAR8, and OVCA420). Cell lines were maintained in RPMI-1640 (Invitrogen; Carlsbad, Calif.) supplemented with 10% fetal bovine serum (Fisher Scientific; Pittsburgh, Pa.), 1% sodium pyruvate, 1% penicillin/streptomycin, and 1% nonessential amino acids (HyClone; Hudson, N.H.). Mycoplasma testing was performed every 6 months following manufacturer's protocol (Lonza, Rockland, Me.).
(§2) The MTS assay was used to assess viability of the OVCA cell lines. For the assays, 3-5×10^4 cells in 100 μL were plated to each well of a 96-well plate and allowed to adhere overnight at 37° C. and 5% CO2. The following day, cells were incubated with increasing concentrations of drug for 72 hours. Cell viability was analyzed using the CellTiter96® MTS assay kit (Promega, Madison, Wis.). Three replicate wells were used for each drug concentration, and an additional three control wells received a diluent control without drug. After drug incubation, the optical density of each well was read at 490 nm using a SpectraMax 190 microplate reader (Molecular Devices Inc., Sunnyvale, Calif.). Percent cell survival was expressed as (control-treated)/(control-blank)×100. All experiments were performed three times, or the minimum number of times to ensure reproducibility and accuracy of the results.

OVCA2 = test: as above; settings: log10 of IC50, uM
Excerpt: as §1, §2

OVCA8 = test: as above; settings: log10 of IC50, uM
Excerpt: as §1, §2

OVCA420 = test: as above; settings: OVCA 420, log10 of IC50, uM
Excerpt: as §1, §2

A2780S = test: as above; settings: Homo sapiens, log10 of IC50, uM
Excerpt: as §1, §2

five OVCA cell lines = test: MTS assay, summary over five OVCA cell lines; settings: for IC50: five OVCA cell lines, 72 hours, MTS
Excerpt: as §1, §2
The cytotoxic effects of continuous exposure to dasatinib and artesunate were assessed for five OVCA cell lines at 72 hours using the MTS assay (Table 5).

HeyA8 OVCA cell = test: HeyA8 cell proliferation under artesunate
HeyA8 OVCA cells = test: In vitro scratch assay (cell migration); settings: HeyA8, 25 mM or 50 mM artesunate, imaged days 0-2; DMSO vehicle closed gap within 2 days
Method: The effects of pathway inhibition on OVCA cell metastatic properties were investigated using the in vitro scratch assay. HeyA8 OVCA cells were maintained in RPMI 1640 medium (Invitrogen) supplemented with 10% fetal bovine serum (FBS; Fisher Scientific, Pittsburgh, Pa.), 1% sodiumpyruvate, 1% penicillin/streptomycin (Cellgro, Manassas, Va.), and 1% nonessential amino acids (HyClone, Hudson, N.H.). Monolayers, 75-80% confluent, were cultured in serum-free media for 4 hours and then mechanically disrupted to create a wound using a 1 mL pipette tip. Culture plates were washed twice with serum-free media to remove floating cells and then incubated with media containing 10% FBS and either vehicle (dimethylsulfoxide [DMSO]) or drug. The DMSO concentration was maintained below 0.5% so as not to influence cell growth or migration. The underside of the culture plate by the wound area was marked with a Sharpie for reference, and wounds were imaged by phase-contrast microscopy on days 0, 1, and 2.

IC50 (A2780S) [µM]	Compound	IC50 (HEYA8) [µM]	IC50 (OVCA2) [µM]	IC50 (OVCA8) [µM]	IC50 (OVCA420) [µM]	IC50 (five OVCA cell lines; log10 value, read-out: median IC50 (log 10) (converted)) [µM]	IC50 (five OVCA cell lines; log10 values, read-out: range of IC50 (log 10) (converted)) [µM]	IC50 (five OVCA cell lines; read-out: median IC50) [µM]	IC50 (five OVCA cell lines; read-out: range of IC50) [µM]	anti-proliferative activity against a panel of OVCA cells (five OVCA cell lines; panel of OVCA cells)	decrease of HeyA8 OVCA cell proliferation (HeyA8 OVCA cell; 25 mM artesunate)	decrease of HeyA8 OVCA cell proliferation (HeyA8 OVCA cell; 50 mM artesunate) [%]	ability of cells to migrate into the denuded area / fill in the gap of a scratch test (HeyA8 OVCA cells)	IC50 (five OVCA cell lines; read-out: mean IC50) [µM]
1.23	C[C@H]1[C@H](OC(=O)CCC(=O)O)O[C@@H]2O[C@@]3(C)CC[C@H]4[C@H](C)CC[C@@H]1[C@@]24OO3 [Artesunate]	7.92	1.31	5.9	19.3	4.29	0.0882 to 1.29	7.13	1.23 to 19.3	anti-proliferative activity	approximately 42%	~64	impaired the ability of the cells to migrate; also recorded: impaired in their ability to fill in the gap	–
0.918	Cc1nc(Nc2ncc(C(=O)Nc3c(C)cccc3Cl)s2)cc(N2CCN(CCO)CC2)n1 [Dasatinib]	0.215	0.953	0.37	0.431	–	–	–	0.214 to 0.953	–	–	–	–	0.577
